Data from PMC2229521 (The Journal of General Physiology, 2002).

Key:
[1] = target: neuronal nAChR ACh recognition sites; settings: ref Perry et al., 1988; Hunter et al., 1989; cited from earlier work
[2] = target: human adult nAChRs expressed in HEK 293 cells (Homo sapiens, UniProt P02708+P11230+Q04844+Q07001); format: binding; settings: P = 0.64 by one-way ANOVA
human adult nAChRs expressed in HEK 293 cells, sequence (P02708 21-457): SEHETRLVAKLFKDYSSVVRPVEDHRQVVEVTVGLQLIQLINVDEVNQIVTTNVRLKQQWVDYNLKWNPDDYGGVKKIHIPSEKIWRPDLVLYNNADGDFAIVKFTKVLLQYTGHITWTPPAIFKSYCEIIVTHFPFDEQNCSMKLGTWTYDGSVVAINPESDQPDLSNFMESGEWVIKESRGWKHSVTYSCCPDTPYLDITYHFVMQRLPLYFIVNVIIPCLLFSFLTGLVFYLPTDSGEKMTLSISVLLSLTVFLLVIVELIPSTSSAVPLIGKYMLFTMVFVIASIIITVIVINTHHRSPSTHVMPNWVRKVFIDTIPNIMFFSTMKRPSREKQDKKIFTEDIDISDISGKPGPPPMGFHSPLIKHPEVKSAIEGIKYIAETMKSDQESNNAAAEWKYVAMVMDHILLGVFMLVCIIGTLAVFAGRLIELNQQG
human adult nAChRs expressed in HEK 293 cells, sequence (P11230 24-501): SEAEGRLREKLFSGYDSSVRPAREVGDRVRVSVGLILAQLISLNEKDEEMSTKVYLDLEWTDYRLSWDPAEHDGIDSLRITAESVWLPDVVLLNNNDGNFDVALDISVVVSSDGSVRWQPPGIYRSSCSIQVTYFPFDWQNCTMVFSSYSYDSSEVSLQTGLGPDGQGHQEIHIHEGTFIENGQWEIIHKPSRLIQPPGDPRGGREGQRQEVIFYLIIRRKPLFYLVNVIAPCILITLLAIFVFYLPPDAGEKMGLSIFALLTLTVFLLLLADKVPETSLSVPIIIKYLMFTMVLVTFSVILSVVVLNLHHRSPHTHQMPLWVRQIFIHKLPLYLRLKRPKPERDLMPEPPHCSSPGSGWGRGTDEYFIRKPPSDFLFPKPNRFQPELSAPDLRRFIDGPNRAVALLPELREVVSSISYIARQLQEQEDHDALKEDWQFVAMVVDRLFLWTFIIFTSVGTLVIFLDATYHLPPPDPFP
human adult nAChRs expressed in HEK 293 cells, sequence (Q07001 22-517): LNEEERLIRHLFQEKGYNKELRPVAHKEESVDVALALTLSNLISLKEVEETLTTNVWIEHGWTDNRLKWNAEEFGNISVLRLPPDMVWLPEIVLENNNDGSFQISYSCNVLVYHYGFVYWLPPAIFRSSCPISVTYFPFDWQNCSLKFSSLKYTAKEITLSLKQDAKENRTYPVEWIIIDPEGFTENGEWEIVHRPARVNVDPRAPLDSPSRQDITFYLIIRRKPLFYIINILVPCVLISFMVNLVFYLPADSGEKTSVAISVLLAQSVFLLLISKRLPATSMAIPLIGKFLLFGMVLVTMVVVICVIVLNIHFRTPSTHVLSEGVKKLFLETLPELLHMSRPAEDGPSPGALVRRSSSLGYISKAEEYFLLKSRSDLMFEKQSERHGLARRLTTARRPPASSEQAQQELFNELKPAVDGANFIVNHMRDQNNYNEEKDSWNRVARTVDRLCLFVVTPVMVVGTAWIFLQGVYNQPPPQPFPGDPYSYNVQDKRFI
human adult nAChRs expressed in HEK 293 cells, sequence (Q04844 21-493): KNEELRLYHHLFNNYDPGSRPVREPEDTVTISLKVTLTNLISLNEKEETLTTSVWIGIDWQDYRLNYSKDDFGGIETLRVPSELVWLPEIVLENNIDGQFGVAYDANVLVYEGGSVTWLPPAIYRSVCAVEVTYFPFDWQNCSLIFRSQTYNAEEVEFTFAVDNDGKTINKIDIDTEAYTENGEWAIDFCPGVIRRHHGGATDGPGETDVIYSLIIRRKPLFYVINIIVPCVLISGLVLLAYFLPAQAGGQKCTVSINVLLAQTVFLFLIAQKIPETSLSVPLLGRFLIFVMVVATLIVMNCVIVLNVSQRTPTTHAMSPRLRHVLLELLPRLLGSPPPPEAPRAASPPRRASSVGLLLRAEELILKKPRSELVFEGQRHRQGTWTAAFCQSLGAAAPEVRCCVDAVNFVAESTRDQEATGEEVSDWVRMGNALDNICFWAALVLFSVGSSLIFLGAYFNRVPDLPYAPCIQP

| Structure (SMILES) | Kd values, competitive binding [1] | difference in log IC 50 values in the presence of varying concentrations of tacrine [2] |
| --- | --- | --- |
| Nc1c2c(nc3ccccc13)CCCC2 [tacrine, 9-amino-1,2,3,4-tetrahydroacridine] | low micromolar range |  |
| C[N+](C)(C)CCOC(N)=O.[Cl-] [carbamylcholine] |  | No difference |
